Assay results published in patent US10160744B2, “Quinoline compounds suitable for treating disorders that respond to the modulation of the serotonin 5-HT6 receptor” (Abbvie Deutschland GmbH & Co. KG, priority 2016, dated 2018).

Assay: Metabolic stability in human liver microsomes (microsomal clearance)
Format: in vitro ADME
Settings: pH 7.4; human liver microsomes 0.25 mg protein/mL, 0.5 μM compound, NADPH, 37° C.; read-out: mClint
Experimental: Samples of the tested compounds (0.5 μM) were preincubated together with human liver microsomes (0.25 mg of microsomal protein/mL) in 0.05 M potassium phosphate buffer of pH 7.4 in microtiter plates at 37° C. for 5 minutes. The reaction was started by adding NADPH (1.0 mM). After 0, 5, 10, 15, 20 and 30 minutes, an aliquot was removed, the reaction was cooled and stopped by adding twice the amount of quench solution consisting of acetonitrile/methanol 1:1, and containing 0.2 μM carbutamide as internal standard. The samples were frozen until analyzed. The remaining concentration of undegraded test substance was determined by liquid chromatography-tandem mass spectrometry (LC-MS/MS). The half-life (t1/2) was determined from the gradient of the ratio of the signal of (test substance/internal standard)/unit time plot, allowing the calculation of the half-life of the test substance, assuming first order kinetics, from the decrease in the concentration of the compound with time. The microsomal clearance (mClint) was calculated as follows: mClint=((ln(2)/t 1/2)/Microsomal Protein Concentration (mg/ml))*1000, leading to the unit of μL/min/mg.

SMILES	microsomal CLint at 0.5 μM [µL/min/mg]
O=C(O)CC1CCN(c2cccc3cc(S(=O)(=O)c4cccc(C(F)(F)F)c4)cnc23)CC1 [Example 57, 2-[1-[3-[3-(Trifluoromethyl)phenyl]sulfonyl-8-quinolyl]-4-piperidyl]acetic Acid]	< 30
O=C(O)CC1CCCN(c2cccc3cc(S(=O)(=O)c4cccc(C(F)(F)F)c4)cnc23)C1 (centres unmarked) [Example 58, 2-[1-[3-[3-(Trifluoromethyl)phenyl]sulfonyl-8-quinolyl]-3-piperidyl]acetic Acid]	30 to 60
CN1CCN(c2cccc(S(=O)(=O)c3cnc4c(N5CCC(C(=O)O)CC5)cccc4c3)c2)CC1 [Example 56, 1-[3-[3-(4-Methylpiperazin-1-yl)phenyl]sulfonyl-8-quinolyl]piperidine-4-carboxylic Acid]	< 30
O=C(O)C1CCN(c2cccc3cc(S(=O)(=O)c4cccc(N5CCNCC5)c4)cnc23)CC1 [Example 55, 1-[3-(3-Piperazin-1-ylphenyl)sulfonyl-8-quinolyl]piperidine-4-carboxylic Acid]	< 30
COC1CCN(c2cccc(S(=O)(=O)c3cnc4c(N5CCC(C(=O)O)CC5)cccc4c3)c2)C1 (centres unmarked) [Example 54, 1-[3-[3-(3-Methoxypyrrolidin-1-yl)phenyl]sulfonyl-8-quinolyl]piperidine-4-carboxylic Acid]	< 30

Results, then the compound that gave them:

microsomal CLint at 0.5 μM [µL/min/mg]	SMILES
< 30	O=C(O)c1cccc(S(=O)(=O)c2cnc3c(N4CCC(C(=O)O)CC4)cccc3c2)c1 [Example 49, 1-[3-(3-Carboxyphenyl)sulfonyl-8-quinolyl]piperidine-4-carboxylic Acid]
30 to 60	O=C(O)C1CCN(c2cccc3cc(S(=O)(=O)c4cccc(OC(F)(F)F)c4)cnc23)CC1 [Example 51, 1-[3-[3-(Trifluoromethoxy)phenyl]sulfonyl-8-quinolyl]piperidine-4-carboxylic Acid]
30 to 60	O=C(O)C1CCN(c2cccc3cc(S(=O)(=O)c4cccc(N5CCCC5)c4)cnc23)CC1 [Example 53, 1-[3-(3-Pyrrolidin-1-ylphenyl)sulfonyl-8-quinolyl]piperidine-4-carboxylic Acid]
< 30	N#Cc1cccc(S(=O)(=O)c2cnc3c(N4CCC(C(=O)O)CC4)cccc3c2)c1 [Example 47, 1-[3-(3-Cyanophenyl)sulfonyl-8-quinolyl]piperidine-4-carboxylic Acid]
30 to 60	O=C(O)C1CCN(c2cccc3cc(S(=O)(=O)c4cccc(F)c4)cnc23)CC1 [Example 52, 1-[3-(3-Fluorophenyl)sulfonyl-8-quinolyl]piperidine-4-carboxylic Acid]
< 30	Cc1cccc(S(=O)(=O)c2cnc3c(N4CCC(C(=O)O)CC4)cccc3c2)c1 [Example 50, 1-[3-(m-Tolylsulfonyl)-8-quinolyl]piperidine-4-carboxylic Acid]
